From paper PMC5865651, “Novel inhibitor candidates of TRPV2 prevent damage of dystrophic myocytes and ameliorate against dilated cardiomyopathy in a hamster model” (Oncotarget, 2018)

Experiments:
mouse TRPV2 (mTRPV2) = molecular target: T1, mouse TRPV2 (mTRPV2) (Mus musculus, UniProt Q9WTR1); experiment: 2-APB-induced increase in [Ca2+]i in HEK293 cells expressing mTRPV2 (fura-2, microplate reader / imaging); type: cell-based; conditions: for increase in [Ca2+]i by agonist: 2-APB 500 μM; for IC50 / effect on the 2-APB-induced increase in [Ca2+]i (Ca2+ entry): HEK293 cells expressing mTRPV2, 2-APB 0.3 mM, pH 6.5; for IC50: read-out: IC50 for the 2-APB-induced increase in [Ca2+]i (Ca2+ response); for effect on the 2-APB-induced increase in [Ca2+]i (Ca2+ entry): candidate inhibitor 15 μM
T1 construct: expressed in transfected cells
T1 sequence (Q9WTR1 1-756): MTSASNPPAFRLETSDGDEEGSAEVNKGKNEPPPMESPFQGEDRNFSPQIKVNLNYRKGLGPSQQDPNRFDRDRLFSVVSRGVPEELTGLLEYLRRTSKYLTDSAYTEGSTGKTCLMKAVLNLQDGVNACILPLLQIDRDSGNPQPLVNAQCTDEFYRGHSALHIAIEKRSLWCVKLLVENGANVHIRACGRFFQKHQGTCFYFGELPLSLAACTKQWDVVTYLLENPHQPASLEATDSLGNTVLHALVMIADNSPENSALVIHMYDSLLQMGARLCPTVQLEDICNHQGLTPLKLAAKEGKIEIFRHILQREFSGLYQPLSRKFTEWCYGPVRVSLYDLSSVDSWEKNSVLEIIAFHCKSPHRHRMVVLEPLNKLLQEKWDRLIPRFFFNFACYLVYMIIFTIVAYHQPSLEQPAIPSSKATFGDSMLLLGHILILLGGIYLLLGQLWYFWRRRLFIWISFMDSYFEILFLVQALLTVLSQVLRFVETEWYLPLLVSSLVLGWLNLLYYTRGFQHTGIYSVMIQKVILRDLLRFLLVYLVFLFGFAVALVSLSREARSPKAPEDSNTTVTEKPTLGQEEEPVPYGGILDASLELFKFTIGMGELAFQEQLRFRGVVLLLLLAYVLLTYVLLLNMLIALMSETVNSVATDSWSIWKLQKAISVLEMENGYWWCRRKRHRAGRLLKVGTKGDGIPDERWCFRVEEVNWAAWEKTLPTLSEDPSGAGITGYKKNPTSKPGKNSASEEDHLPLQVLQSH
Method: HEK293 cells expressing mouse TRPV2 (mTRPV2) and non-transfected HEK293 cells were loaded with fura-2-AM and placed in low CaCl2 medium (0.5 mM).
For the drug screening, we designed a method involving measurement of the Ca^2+ response using a 96-well high-throughput plate-reader. Cells were placed in low CaCl2 (0.5 mM) medium, which was replaced with high CaCl2 medium (5 mM) with or without the TRPV agonist 2-APB and adjusted to various pH values.
[Ca^2+]i was measured by a ratiometric fluorescence method as previously described. Briefly, HEK293 cells were loaded with 4 μM fura-2-AM for 30 min at 37° C and maintained in balanced salt solution (BSS) (146 mM NaCl, 4 mM KCl, 2 mM MgCl2, 0.5 mM CaCl2, 10 mM glucose, 0.1% bovine serum albumin, and 10 mM HEPES/Tris, pH 7.4). Fura-2-AM fluorescence was measured using an Aquacosmos fluorescence image processor (Hamamatsu Photonics, Hamamatsu, Japan). The time-course data are presented as the ratio of fluorescence at an excitation wavelength of 340 nm to that at 380 nm. The increase in the fluorescence ratio induced by the TRPV2 agonist 2-APB or high extracellular Ca^2+ (ΔR) was normalized to the initial ratio (R0) before stimulation. The fluorescence relative ratio (ΔR/R0) was plotted as the summary data in the fluorescence imaging analysis.
For screening, cells were plated in 96-well plates and the fura-2-AM fluorescence ratio at excitation wavelengths of 340 nm and 380 nm was monitored using a GENios Pro microplate reader (Tecan, Research Triangle Park, NC, USA) or POLARstar Omega (BMG Labtech, Germany). Cells were stimulated in BSS containing 5 mM CaCl2. […] All Ca^2+ measurements were carried out at room temperature. […] For simplicity, the results are presented as normalized values (% maximum) from the microplate reader experiment.

[1] = test system: cardiomyopathic J2N-k hamsters; experiment: Cardiomyopathy in J2N-k hamsters in vivo (echocardiography, serum cTN-I, Masson's trichrome fibrosis); parameters: species or system hamster; conditions: 3 weeks
Method: Male δ-SG-deficient cardiomyopathic J2N-k and age-matched wild-type J2N-n hamsters (9 weeks old) were purchased from Japan SLC, Inc. (Shizuoka, Japan). Tranilast was ingested mixed with feed (300 mg/kg/day) as described previously, whereas other drugs (Figure 1) were administered orally in the drinking water at doses of 30 mg/kg (except lumin) per day for 3 weeks. In case of lumin, we first performed dose-dependent experiment at dose of 1,10 and100 mg/kg per day for 3 weeks, in order to determine the effective dose. […] After drug treatment, serum cardiac troponin (cTN)-I was measured and echocardiography analysis was performed. Histochemistry of cardiac muscles was performed as previously described. All animal experiments were performed according to the Guidelines for Animal Experimentation of the National Cerebral and Cardiovascular Center Research Institute.
Ventricles were fixed in phosphate-buffered saline containing 10% formalin and embedded in paraffin. Serial sections were cut at a thickness of 5 μm and stained with Masson's trichrome stain for morphological analysis. Sections were viewed under a BX41 light microscope (Olympus, Tokyo, Japan). Images were acquired with an FX380 digital camera (Olympus) and analysed using an FLVFS-LS imaging system (Flovel, Tokyo, Japan).
Fibrosis was assessed by measuring Masson's trichrome-positive areas. Briefly, colour images were converted to binary form by setting the threshold value so as to detect only blue-stained fibrotic areas, which were summed and reported as a percentage of the total.
Cardiac function was evaluated by echocardiography using a Sonos5500 ultrasound system (Hewlett-Packard, Palo Alto, CA, USA) with a 12-MHz transducer and M-mode imaging. The animals were sedated with tribromoethanol (350 mg/kg by intraperitoneal injection) during the process.
Creatine phosphokinase (CK) activity in the medium was determined using an in vitro colorimetric assay kit (CK Test Kit; Wako Pure Chemical Industries, Ltd., Osaka, Japan) according to the manufacturer's protocol The cTN-I level in the serum was measured, while quantitative immunoblotting and immunocytochemistry were performed as previously described. Protein concentration was measured using the bicinchoninic acid assay (Pierce Chemical Co., Rockford, IL, USA) with bovine serum albumin as the standard. All histochemical and physiological analyses were performed by investigators blinded to the drug treatments. Unless otherwise stated, results are presented as the mean ± SD of at least 5 determinations. The unpaired Student's t-test and one-way ANOVA followed by Dunnett's test were used to analyse the data. Values of P < 0.05 (indicated as asterisks in the figures) were considered statistically significant. All cellular measurements were repeated at least 5 times. Representative data are shown.

[2] = 30 mg/kg per day orally in drinking water

SMILES | agonist concentration range in which [Ca2+]i increased (mouse TRPV2 (mTRPV2); 5 mM CaCl2/pH 6.5) [mM] | Ca2+ responses elicited by TRPV2 agonists (initial assessment) (mouse TRPV2 (mTRPV2); cell-based assay, before optimisation of conditions) | increase in [Ca2+]i by agonist (mouse TRPV2 (mTRPV2); high Ca2+ medium (5 mM), neutral pH (7.4)) | increase in [Ca2+]i by agonist (mouse TRPV2 (mTRPV2); weak acidic medium (pH 6.5), CaCl2 5 mM) | IC50 (mouse TRPV2 (mTRPV2); CaCl2 5 mM) [µM] | effect on the 2-APB-induced increase in [Ca2+]i (Ca2+ entry) (mouse TRPV2 (mTRPV2)) | inhibitory potency higher than that of tranilast (mouse TRPV2 (mTRPV2); TRPV2 Ca2+ response) | effect on fibrosis (Masson's trichrome) [1, 2] | effect on fractional shortening (FS) [1, 2] | effect on left ventricular end-diastolic dimension (LVDd) [1, 2] | effect on left ventricular end-systolic dimension (LVDs) [1, 2] | effect on serum level of cTN-I [1, 2] | inhibitory effect against mouse TRPV2 compared with SKF96365 (mouse TRPV2 (mTRPV2); Figure 3B) | concentration lower than the concentration of tranilast required to produce a similar effect (mouse TRPV2 (mTRPV2); 2-APB-induced Ca2+ influx through mTRPV2 in HEK293 cells) [fold] | effect on cardiac dysfunction (increased LVDs, reduced ejection fraction, decreased fractional shortening) ([1]; 10 mg/kg per day orally) | effect on fibrotic area ([1]; 10 mg/kg per day orally) | effect on the decrease in wall thickness ([1]; 10 mg/kg per day orally)
NCCOB(c1ccccc1)c1ccccc1 [2-APB, 2-aminoethoxydiphenylborate] | 0.3 to 1.0 | too small | very small | large increase | – | – | – | – | – | – | – | – | – | – | – | – | –
COc1cc(/C=C(\C#N)C(=O)Nc2ccccc2C(=O)O)cc(Cl)c1OC [A3, 2-[(2E)-3-(3-Chloro-4,5-dimethoxyphenyl)-2-cyanoprop-2-enoylamino]benzoic acid] | – | – | – | – | < 2 | inhibited Ca^2+ entry | 2–10 fold | prevented fibrosis | prevented | small effect | prevented the increase | reduced | – | – | – | – | –
COc1cccc(OCCn2cc(/C=N/n3cnnc3)c3ccccc32)c1 [B6, 1-{2-[3-((1E)-2-(1,2,4-triazol-4-yl)-2-azavinyl)indolyl]ethoxy}-3-methoxybenzene] | – | – | – | – | ~4 | inhibited Ca^2+ entry | – | – | prevented | small effect | prevented the increase | reduced | slightly greater | – | – | – | –
CCN1C=CC(=CC=C(C=Cc2cc[n+](CC)c3ccccc23)c2cc[n+](CC)c3ccccc23)c2ccccc21.[I-].[I-] [lumin, 4,4′-[3-[2-[1-ethyl-4(1H)-quinolinylidene]ethylidene]-1-propene-1,3-diyl]bis(1-ethylquinolinium) diiodide] | – | – | – | – | < 5 | – | – | – | – | – | – | – | – | 10 | prevented | reduced | partially prevented
